The values below come from publication PMC6803074 (Experimental hematology, 2019).

Common to all, as to test: cell proliferation assay
Holding throughout (type): cell-based

The subject of assay [1] is BCR-ABL1. To be noted: BCR-ABL1-positive cells; proliferation read-out; stated gain.
The subject of assay [2] is BCR-ABL1. As to conditions: BCR-ABL1-positive cells; proliferation read-out; stated gain. This is another data set of the same source.
Assay [3] concerns BCR-ABL1. To be noted: BCR-ABL1-positive cells; proliferation read-out.
Assay [4] concerns BCR-ABL1. To be noted: BCR-ABL1-positive cells; proliferation read-out; stated gain. This is another data set of the same source.

For the compound `Cc1ccc(C(=O)NNC(=O)c2c(C)cccc2Cl)cc1C#Cc1cnc2ccccc2c1` [K0706], the IC50 (in general, the midpoint of a concentration-inhibition curve) turned out to be 0.165 µM in the assay with BCR-ABL1 [1], 0.154 µM in the assay on BCR-ABL1 [2], 0.007 µM with BCR-ABL1 [3] and 1.967 µM in the assay with BCR-ABL1 [4].
